Experiments:
Type in all cases: biochemical
Abl (h) = Abl (h) (Homo sapiens, UniProt P00519); test: Abl human kinase assay (glass-fiber filter); settings: test concentration of 10^−6M; for inhibition at 1 µM: read-out: C1 score (inhibition of Abl human)
CSK (h) = CSK (h) (Homo sapiens, UniProt P41240); test: CSK human kinase assay (glass-fiber filter); settings: test concentration of 10^−6M; for inhibition at 1 µM: read-out: C2 score (inhibition of CSK human)
Experimental: (§1) In the glass-fiber filter technology the activity of the kinase of interest is measured using an appropriate substrate that is incubated with the aforementioned kinase protein in the presence of (^33P) radiolabeled ATP. (^33P) Phosphorylation of the substrate is subsequently measured as radioactivity bound on a glass fiber-filter.
(§2) All kinases are pre-diluted to a 10× working concentration prior to addition into the assay. The composition of the dilution buffer for each kinase is detailed below.
(§3) In a final reaction volume of 25 μl, CSK (h) (5-10 mU) is incubated with 50 mM Tris pH 7.5, 0.1 mM EGTA, 0.1 mM Na3VO4, 0.1% β-mercaptoethanol, 0.1 mg/ml poly(Glu, Tyr) 4:1, 10 mM MnCl2, 10 mM MgAcetate and [γ-^33P-ATP] (specific activity approx. 500 cpm/pmol, concentration as required). The reaction is initiated by the addition of the MgATP mix. After incubation for 40 minutes at room temperature, the reaction is stopped by the addition of 5 μl of a 3% phosphoric acid solution. 10 μl of the reaction is then spotted onto a Filtermat A and washed three times for 5 minutes in 75 mM phosphoric acid and once in methanol prior to drying and scintillation counting.

cSRC (h) = cSRC (h) (Homo sapiens, UniProt P12931); test: cSRC human kinase assay (glass-fiber filter); settings: test concentration of 10^−6M; for inhibition at 1 µM: read-out: C3 score (inhibition of cSRC human)
In short: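 Radiometric assay: kinase and substrate are incubated with [33P]ATP, with the reaction started by MgATP mix. The reaction is spotted on P30 filtermat, washed in 75 mM phosphoric acid and methanol, and the bound 33P is measured by scintillation counting.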

Fes (h) = Fes (h) (Homo sapiens, UniProt P07332); test: Fes human kinase assay (glass-fiber filter); settings: test concentration of 10^−6M; for inhibition at 1 µM: read-out: C4 score (inhibition of Fes human)
Fes (h), sequence (P07332 whole entry): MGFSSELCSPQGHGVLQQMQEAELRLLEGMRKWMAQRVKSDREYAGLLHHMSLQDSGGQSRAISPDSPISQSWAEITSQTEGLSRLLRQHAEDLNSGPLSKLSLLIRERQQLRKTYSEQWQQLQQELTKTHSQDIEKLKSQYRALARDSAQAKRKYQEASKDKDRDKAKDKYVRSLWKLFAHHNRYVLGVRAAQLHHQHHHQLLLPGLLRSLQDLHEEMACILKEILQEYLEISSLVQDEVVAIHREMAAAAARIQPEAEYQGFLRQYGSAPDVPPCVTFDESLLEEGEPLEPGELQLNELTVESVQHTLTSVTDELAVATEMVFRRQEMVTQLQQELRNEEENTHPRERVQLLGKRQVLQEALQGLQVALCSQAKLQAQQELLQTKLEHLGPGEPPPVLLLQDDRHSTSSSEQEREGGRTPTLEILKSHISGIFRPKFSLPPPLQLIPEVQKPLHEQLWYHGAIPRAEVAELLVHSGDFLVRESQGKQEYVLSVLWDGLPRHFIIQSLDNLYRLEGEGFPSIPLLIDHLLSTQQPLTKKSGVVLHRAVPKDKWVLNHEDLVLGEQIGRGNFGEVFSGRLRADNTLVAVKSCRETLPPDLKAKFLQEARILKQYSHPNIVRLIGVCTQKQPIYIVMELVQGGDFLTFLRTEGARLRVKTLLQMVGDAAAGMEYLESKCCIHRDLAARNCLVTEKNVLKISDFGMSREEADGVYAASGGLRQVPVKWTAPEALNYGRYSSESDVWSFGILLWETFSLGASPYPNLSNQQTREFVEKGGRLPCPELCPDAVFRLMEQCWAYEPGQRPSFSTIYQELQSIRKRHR
Experimental: as §1, §2
as §3, with “μl, Fes” for “μl, CSK”, “with 8” for “with 50”, “mM MOPS” for “mM Tris”, “pH 7.0, 0.2” for “pH 7.5, 0.1”, “mM EDTA,” for “mM EGTA, 0.1 mM Na3VO4, 0.1% β-mercaptoethanol,”, “4:1,” for “4:1, 10 mM MnCl2,”

Flt3 (h) = Flt3 (h) (Homo sapiens, UniProt P36888); test: Flt3 human kinase assay (glass-fiber filter); settings: test concentration of 10^−6M; for inhibition at 1 µM: read-out: C6 score (inhibition of Flt3 human)
In short: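 Human Flt3 (5-10 mU) with 50 μM peptide substrate in 8 mM MOPS pH 7.0, 0.2 mM EDTA, 10 mM Mg acetate and [γ-33P]ATP (concentration as required), 40 min at room temperature. Reaction stopped with phosphoric acid; substrate 33P incorporation counted on P30 glass-fiber filter.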

Fms (h) = Fms (h) (Homo sapiens, UniProt P07333); test: Fms human kinase assay (glass-fiber filter); settings: test concentration of 10^−6M; for inhibition at 1 µM: read-out: C7 score (inhibition of Fms human)
Fms (h), sequence (P07333 20-972): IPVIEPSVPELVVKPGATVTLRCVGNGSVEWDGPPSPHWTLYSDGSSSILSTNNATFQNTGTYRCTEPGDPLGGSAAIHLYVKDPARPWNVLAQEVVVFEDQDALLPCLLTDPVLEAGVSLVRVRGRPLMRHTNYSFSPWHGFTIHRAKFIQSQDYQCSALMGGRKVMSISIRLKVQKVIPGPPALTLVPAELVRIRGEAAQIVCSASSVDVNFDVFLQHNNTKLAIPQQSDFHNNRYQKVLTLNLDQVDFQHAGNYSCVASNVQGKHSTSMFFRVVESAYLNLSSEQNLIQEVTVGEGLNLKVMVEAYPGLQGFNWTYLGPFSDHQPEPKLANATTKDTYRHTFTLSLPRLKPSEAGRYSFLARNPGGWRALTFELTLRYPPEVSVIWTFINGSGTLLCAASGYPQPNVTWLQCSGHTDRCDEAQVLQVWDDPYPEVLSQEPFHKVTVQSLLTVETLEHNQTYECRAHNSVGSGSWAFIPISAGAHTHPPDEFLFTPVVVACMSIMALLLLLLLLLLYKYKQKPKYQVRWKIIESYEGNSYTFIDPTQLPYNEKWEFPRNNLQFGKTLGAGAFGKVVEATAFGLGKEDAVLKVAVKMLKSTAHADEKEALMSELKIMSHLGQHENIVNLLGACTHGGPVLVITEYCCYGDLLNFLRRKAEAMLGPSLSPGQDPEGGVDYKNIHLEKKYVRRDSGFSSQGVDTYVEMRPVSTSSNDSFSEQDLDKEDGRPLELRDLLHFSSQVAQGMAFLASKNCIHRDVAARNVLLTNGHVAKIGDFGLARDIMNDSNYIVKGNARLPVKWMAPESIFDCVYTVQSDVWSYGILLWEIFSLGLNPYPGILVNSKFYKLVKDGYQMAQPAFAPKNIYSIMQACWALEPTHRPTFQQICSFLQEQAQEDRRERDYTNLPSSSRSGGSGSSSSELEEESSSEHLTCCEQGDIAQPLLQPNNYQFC
In short: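 Radiometric filter-binding assay: Fms (5-10 mU) with 250 μM peptide substrate and [γ-33P]ATP in 8 mM MOPS pH 7.0, 10 mM Mg acetate, 40 min at room temperature. Reaction stopped with phosphoric acid; substrate-bound 33P counted on P30 filtermat.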

Lck (h) = Lck (h) (Homo sapiens, UniProt P06239); test: Lck human kinase assay (glass-fiber filter); settings: test concentration of 10^−6M; for inhibition at 1 µM: read-out: C9 score (inhibition of Lck human)
Lck (h), sequence (P06239 whole entry): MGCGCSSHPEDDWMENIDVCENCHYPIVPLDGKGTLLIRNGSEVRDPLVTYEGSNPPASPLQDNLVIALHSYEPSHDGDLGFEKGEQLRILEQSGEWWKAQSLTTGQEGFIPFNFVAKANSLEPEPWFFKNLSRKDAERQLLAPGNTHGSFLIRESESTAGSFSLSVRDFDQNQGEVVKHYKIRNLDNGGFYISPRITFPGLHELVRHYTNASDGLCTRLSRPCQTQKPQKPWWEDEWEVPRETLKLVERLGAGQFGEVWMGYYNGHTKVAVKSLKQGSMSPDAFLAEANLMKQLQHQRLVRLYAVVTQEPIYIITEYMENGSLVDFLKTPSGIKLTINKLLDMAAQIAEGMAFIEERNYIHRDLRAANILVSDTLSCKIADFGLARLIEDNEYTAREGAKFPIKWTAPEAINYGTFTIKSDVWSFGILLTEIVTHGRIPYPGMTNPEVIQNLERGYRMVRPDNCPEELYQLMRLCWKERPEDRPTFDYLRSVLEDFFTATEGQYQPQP
In short: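 Kinase activity measured as transfer of (^33P) from radiolabeled MgATP to substrate, captured on P30 glass-fiber filtermat, washed in 75 mM phosphoric acid and methanol, then scintillation counted.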

Lyn (h) = Lyn (h) (Homo sapiens, UniProt P07948); test: Lyn human kinase assay (glass-fiber filter); settings: test concentration of 10^−6M; for inhibition at 1 µM: read-out: C10 score (inhibition of Lyn human)
Lyn (h), sequence (P07948 whole entry): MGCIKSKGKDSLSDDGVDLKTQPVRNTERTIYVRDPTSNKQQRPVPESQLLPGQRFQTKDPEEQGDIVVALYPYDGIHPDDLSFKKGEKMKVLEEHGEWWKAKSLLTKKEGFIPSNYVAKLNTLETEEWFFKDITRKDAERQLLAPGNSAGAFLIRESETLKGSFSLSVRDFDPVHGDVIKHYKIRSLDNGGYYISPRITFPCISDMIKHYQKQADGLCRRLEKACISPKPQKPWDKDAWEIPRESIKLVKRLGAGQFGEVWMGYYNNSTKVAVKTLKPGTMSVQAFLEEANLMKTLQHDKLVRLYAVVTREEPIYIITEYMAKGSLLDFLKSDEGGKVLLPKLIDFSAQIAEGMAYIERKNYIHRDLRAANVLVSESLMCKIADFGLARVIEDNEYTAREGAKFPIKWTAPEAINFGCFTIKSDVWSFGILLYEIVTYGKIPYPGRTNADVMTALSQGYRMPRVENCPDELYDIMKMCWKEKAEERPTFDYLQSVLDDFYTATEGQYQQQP
In short: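 Human Lyn (5-10 mU) phosphorylating poly(Glu,Tyr) 4:1 at 0.1 mg/ml with [γ-33P]ATP (concentration as required) in 50 mM Tris pH 7.5, 10 mM Mg acetate, 40 min at room temperature. Stopped with phosphoric acid; substrate-bound radioactivity counted on glass-fibre filter.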

Yes (h) = Yes (h) (Homo sapiens, UniProt P07947); test: Yes human kinase assay (glass-fiber filter); settings: test concentration of 10^−6M; for inhibition at 1 µM: read-out: C11 score (inhibition of Yes human)
Yes (h), sequence (P07947 whole entry): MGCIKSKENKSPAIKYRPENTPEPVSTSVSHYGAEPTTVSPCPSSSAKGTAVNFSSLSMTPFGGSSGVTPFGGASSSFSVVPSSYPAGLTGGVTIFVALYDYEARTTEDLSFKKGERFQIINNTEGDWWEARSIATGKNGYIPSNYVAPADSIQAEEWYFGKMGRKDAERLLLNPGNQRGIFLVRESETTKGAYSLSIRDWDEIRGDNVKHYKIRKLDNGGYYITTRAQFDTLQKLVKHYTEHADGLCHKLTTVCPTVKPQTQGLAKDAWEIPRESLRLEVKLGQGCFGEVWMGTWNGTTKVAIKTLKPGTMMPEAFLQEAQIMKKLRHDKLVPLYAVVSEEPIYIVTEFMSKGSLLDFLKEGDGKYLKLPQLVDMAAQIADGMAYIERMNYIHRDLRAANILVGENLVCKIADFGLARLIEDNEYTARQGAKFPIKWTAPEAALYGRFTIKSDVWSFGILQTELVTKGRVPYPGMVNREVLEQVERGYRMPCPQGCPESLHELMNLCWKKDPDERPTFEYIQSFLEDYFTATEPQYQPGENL
In short: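 Yes (h) (5-10 mU) with 0.1 mg/ml poly(Glu, Tyr) 4:1 in 8 mM MOPS pH 7.0, 0.2 mM EDTA, 10 mM MgAcetate and [γ-^33P-ATP], 40 minutes at room temperature. Stopped with phosphoric acid; substrate-bound ^33P counted on glass-fiber filter by scintillation.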

EGFR (h) = EGFR (h) (Homo sapiens, UniProt P00533); test: EGFR human kinase assay (glass-fiber filter); settings: test concentration of 10^−6M
Experimental: as §1, §2
(§4) In a final reaction volume of 25 μl, EGFR (h) (5-10 mU) is incubated with 8 mM MOPS pH 7.0, 0.2 mM EDTA, 10 mM MnCl2, 0.1 mg/ml poly(Glu, Tyr) 4:1, 10 mM MgAcetate and [γ-^33P-ATP] (specific activity approx. 500 cpm/pmol, concentration as required). The reaction is initiated by the addition of the MgATP mix. After incubation for 40 minutes at room temperature, the reaction is stopped by the addition of 5 μl of a 3% phosphoric acid solution. 10 μl of the reaction is then spotted onto a Filtermat A and washed three times for 5 minutes in 75 mM phosphoric acid and once in methanol prior to drying and scintillation counting.

GSK3B (h) = GSK3B (h) (Homo sapiens, UniProt P49841); test: GSK3β human kinase assay (glass-fiber filter); settings: test concentration of 10^−6M; for inhibition at 1 µM: read-out: C8 score (inhibition of GSK3β human)
GSK3B (h), sequence (P49841 whole entry): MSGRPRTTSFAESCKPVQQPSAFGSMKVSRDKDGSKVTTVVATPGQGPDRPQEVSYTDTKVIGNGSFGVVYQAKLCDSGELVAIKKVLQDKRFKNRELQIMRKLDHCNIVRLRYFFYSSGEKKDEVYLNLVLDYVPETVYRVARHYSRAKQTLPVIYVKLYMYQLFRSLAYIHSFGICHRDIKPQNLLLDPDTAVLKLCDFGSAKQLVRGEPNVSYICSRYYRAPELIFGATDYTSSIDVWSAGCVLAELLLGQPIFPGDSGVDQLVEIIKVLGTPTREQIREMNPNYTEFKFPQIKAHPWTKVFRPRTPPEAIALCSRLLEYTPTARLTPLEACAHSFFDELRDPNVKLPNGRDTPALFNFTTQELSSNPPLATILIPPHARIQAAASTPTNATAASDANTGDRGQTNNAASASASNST
Experimental: The in vitro inhibition of a panel of kinases was assessed using either the glass-fiber filter technology as described by Davies, S. P. et al., Biochem J. (2000), 351; p. 95-105.
as §1, §2
as §4, with “GSK3B” for “EGFR”, “20 μM […](p)EDEEE (phospho GS2 peptide),” for “10 mM MnCl2, 0.1 mg/ml poly(Glu, Tyr) 4:1,”, “P30 filtermat” for “Filtermat A”, “50” for “75”

Abl (h), sequence (P00519 whole entry): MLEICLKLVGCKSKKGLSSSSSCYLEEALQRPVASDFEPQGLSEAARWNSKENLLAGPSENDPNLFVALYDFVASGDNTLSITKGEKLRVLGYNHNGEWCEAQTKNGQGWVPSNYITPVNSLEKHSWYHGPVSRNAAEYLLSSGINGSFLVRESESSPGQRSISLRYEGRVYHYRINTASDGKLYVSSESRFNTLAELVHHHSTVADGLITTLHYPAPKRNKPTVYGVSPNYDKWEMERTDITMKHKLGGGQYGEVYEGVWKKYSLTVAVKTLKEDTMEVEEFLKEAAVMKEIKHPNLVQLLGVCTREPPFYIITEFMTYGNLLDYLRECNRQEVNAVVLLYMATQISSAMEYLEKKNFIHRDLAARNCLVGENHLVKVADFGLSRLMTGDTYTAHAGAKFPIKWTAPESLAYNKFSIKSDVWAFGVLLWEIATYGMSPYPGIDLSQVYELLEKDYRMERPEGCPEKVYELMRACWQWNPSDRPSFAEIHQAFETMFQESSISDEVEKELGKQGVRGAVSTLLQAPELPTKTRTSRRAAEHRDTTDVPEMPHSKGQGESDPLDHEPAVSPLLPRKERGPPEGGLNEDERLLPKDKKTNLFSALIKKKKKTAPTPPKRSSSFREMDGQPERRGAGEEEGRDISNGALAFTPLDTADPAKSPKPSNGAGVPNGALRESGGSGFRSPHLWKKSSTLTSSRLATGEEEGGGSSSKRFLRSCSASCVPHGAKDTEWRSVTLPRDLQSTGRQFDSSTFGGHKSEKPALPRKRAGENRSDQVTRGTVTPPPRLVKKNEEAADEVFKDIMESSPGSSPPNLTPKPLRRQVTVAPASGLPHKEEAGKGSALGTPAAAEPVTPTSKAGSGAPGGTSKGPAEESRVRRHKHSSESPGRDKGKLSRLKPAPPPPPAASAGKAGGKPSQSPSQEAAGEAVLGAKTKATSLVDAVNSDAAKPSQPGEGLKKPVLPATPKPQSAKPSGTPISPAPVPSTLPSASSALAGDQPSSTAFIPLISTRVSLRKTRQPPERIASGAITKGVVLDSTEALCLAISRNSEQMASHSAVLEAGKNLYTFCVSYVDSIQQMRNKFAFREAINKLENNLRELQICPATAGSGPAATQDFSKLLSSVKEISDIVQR

Row | inhibition at 1 µM (CSK (h)) [%] | inhibition at 1 µM (cSRC (h)) [%] | inhibition at 1 µM (Flt3 (h)) [%] | inhibition at 1 µM (Fms (h)) [%] | inhibition at 1 µM (Yes (h)) [%] | Molecule | C2 score (inhibition of CSK human) (CSK (h)) | C3 score (inhibition of cSRC human) (cSRC (h)) | C4 score (inhibition of EGFR human) (EGFR (h)) | C4 score (inhibition of Fes human) (Fes (h)) | C9 score (inhibition of Lck human) (Lck (h)) | C10 score (inhibition of Lyn human) (Lyn (h)) | C11 score (inhibition of Yes human) (Yes (h)) | C8 score (inhibition of GSK3β human) (GSK3B (h)) | further results
1 | 10 to 30 | 10 to 30 | 30 to 60 | 10 to 30 | 10 to 30 | O=C1NCCCCCOc2cccc(c2)Nc2ccnc(n2)Nc2cccc1c2 [Compound 22, 14-oxa-2,4,8,20,28-pentaazatetracyclo[20.3.1.1~3,7~.1~9,13~]octacosa-1(26),3,5,7(28),9,11,13(27),22,24-nonaen-21-one] |  |  |  |  |  |  |  |  | inhibition at 1 µM (Abl (h)): 10 to 30%; inhibition at 1 µM (Fes (h)): 10 to 30%; inhibition at 1 µM (Lck (h)): 10 to 30%; inhibition at 1 µM (Lyn (h)): 10 to 30%
2 |  |  |  |  |  | Cl.Cl.O=C1CNC(=O)Cc2ccc(Cl)cc2Nc2cc(ncn2)Nc2ccc(OCCCN3CCOCC3)c(c2)OCCN1 [Compound 107, 1H,7H-6,2:8,12-dimetheno-13,1,3,5,7,16,19-benzoxahexaazacyclotricosine-17,20(14H)-dione, 24-chloro-15,16,18,19,21-pentahydro-11-[3-(4-morpholinyl)propoxy]-, hydrochloric acid salt (1:2)] | 3 (Score 3=60-80% inhibition) | 4 (Score 4=>80% inhibition) | 4 (Score 4=>80% inhibition) | 4 (Score 4=>80% inhibition) | 4 (Score 4=>80% inhibition) | 4 (Score 4=>80% inhibition) | 4 (Score 4=>80% inhibition) |  | C1 score (inhibition of Abl human) (Abl (h)): 4 (Score 4=>80% inhibition)
3 |  |  |  |  |  | COc1ccc2cc1OCCCCCCCCCOc1ccc(Cl)cc1Nc1cc(ncn1)N2 [Compound 39, 1H,7H-2,6: 12,8-dimetheno-14H-13,23,1,3,5,7-benzodioxatetraazacyclopentacosine, 26-chloro-15,16,17,18,19,20,21,22-octahydro-11-methoxy-] | 1 (Score 1=10-30% inhibition) |  |  | 1 (Score 1=10-30% inhibition) | 1 (Score 1=10-30% inhibition) |  |  | 1 (Score 1=10-30% inhibition) | C7 score (inhibition of Fms human) (Fms (h)): 1 (Score 1=10-30% inhibition)
4 | 60 to 80 |  | 10 to 30 | 30 to 60 |  | O=C1CCCCNC(=O)c2cccc(c2)Nc2cc(ncn2)Nc2cccc(c2)CN1 [Compound 58, 2,4,6,8,15,21-hexaazatetracyclo[21.3.1.1~3,7~.1~9,13~]nonacosa-1(27),3,5,7(29),9,11,13(28),23,25-nonaene-14,20-dione] |  |  |  |  |  |  |  |  | inhibition at 1 µM (Lyn (h)): 10 to 30%
5 |  | 10 to 30 | 30 to 60 | 10 to 30 | 10 to 30 | N#Cc1cnc2nc1Nc1cccc(c1)OCCNC(=O)c1cccc(c1)N2 [Compound 20, 14-oxa-2,4,8,17,25-pentaazatetracyclo[17.3.1.1~3,7~.1~9,13~]pentacosa-1(23),3,5,7(25),9,11,13(24),19,21-nonaene-6-carbonitrile, 18-oxo-] |  |  |  |  |  |  |  |  | inhibition at 1 µM (Abl (h)): 10 to 30%; inhibition at 1 µM (EGFR (h); read-out: C4 score (inhibition of EGFR human)): 10 to 30%; inhibition at 1 µM (Fes (h)): 10 to 30%; inhibition at 1 µM (GSK3B (h)): 60 to 80%
6 |  |  |  |  |  | COc1ccc2cc1OCCCCCCCCOc1ccc(Br)cc1Nc1cc(ncn1)N2 [Compound 38, 1H,7H-2,6: 12,8-dimetheno-13,22,1,3,5,7-benzodioxatetraazacyclotetracosine, 25-bromo-14,15,16,17,18,19,20,21-octahydro-11-methoxy-] | 1 (Score 1=10-30% inhibition) | 1 (Score 1=10-30% inhibition) | 3 (Score 3=60-80% inhibition) |  |  | 1 (Score 1=10-30% inhibition) | 1 (Score 1=10-30% inhibition) | 1 (Score 1=10-30% inhibition) | C7 score (inhibition of Fms human) (Fms (h)): 2 (Score 2=30-60% inhibition)
7 |  |  |  |  |  | 1H,7H-12,8-metheno-6,2-nitrilo-13,1,5,7,17,20-benzoxapentaazacyclotricosine-3-carbonitrile, 24-chloro-14,15,16,17,18,19,20,21-octahydro-11-methoxy-20-methyl-18-oxo- [Compound 33] |  | 4 (Score 4=>80% inhibition) | 3 (Score 3=60-80% inhibition) | 2 (Score 2=30-60% inhibition) | 3 (Score 3=60-80% inhibition) | 4 (Score 4=>80% inhibition) | 4 (Score 4=>80% inhibition) | 2 (Score 2=30-60% inhibition) | C1 score (inhibition of Abl human) (Abl (h)): 3 (Score 3=60-80% inhibition); C6 score (inhibition of Flt3 human) (Flt3 (h)): 4 (Score 4=>80% inhibition)

Row | Molecule | inhibition at 1 µM (CSK (h)) [%] | inhibition at 1 µM (cSRC (h)) [%] | inhibition at 1 µM (Flt3 (h)) [%] | inhibition at 1 µM (Fms (h)) [%] | inhibition at 1 µM (Yes (h)) [%] | C2 score (inhibition of CSK human) (CSK (h)) | C3 score (inhibition of cSRC human) (cSRC (h)) | C4 score (inhibition of EGFR human) (EGFR (h)) | C4 score (inhibition of Fes human) (Fes (h)) | C9 score (inhibition of Lck human) (Lck (h)) | C10 score (inhibition of Lyn human) (Lyn (h)) | C11 score (inhibition of Yes human) (Yes (h)) | C8 score (inhibition of GSK3β human) (GSK3B (h)) | further results
8 | O=C1COc2cccc(c2)Nc2cc(ncn2)Nc2cccc(c2)CN2CCN1CC2 [Compound 42, 20-oxa-1,8,10,12,14,23-hexaazapentacyclo[21.2.2.1~3,7~.1~9,13~.1~15,19~]triaconta-3,5,7(30),9,11,13(29),15,17,19(28)-nonaen-22-one] | 30 to 60 | 10 to 30 | 30 to 60 | 30 to 60 | 60 to 80 |  |  |  |  |  |  |  |  | inhibition at 1 µM (GSK3B (h)): 10 to 30%; inhibition at 1 µM (Lck (h)): 30 to 60%

Source: US8148388B2, “2,4 (4,6) pyrimidine derivatives” (Janssen Pharmaceutica, N.V., priority 2004, dated 2012)
